In patent US20120283296A1, “PYRROLOPYRAZOLES FOR TREATING CNS DISORDERS” (aFRAXis, Inc., priority 2009, published 2012):
Where two headings read alike, the source gives them in different places.

Experiments:
Assay in all cases: Competitive binding (test PAK inhibitor affinity) assay, phage-displayed kinase vs immobilized staurosporine
[1] = target: PAK1 (Homo sapiens, UniProt Q13153)
[2] = target: PAK2 (Homo sapiens, UniProt Q13177)
[3] = target: PAK7 (Homo sapiens, UniProt Q9P286)
[4] = target: PAK6 (Homo sapiens, UniProt Q9NQU5)
[5] = target: PAK4 (Homo sapiens, UniProt O96013)
PAK4, sequence (O96013 whole entry): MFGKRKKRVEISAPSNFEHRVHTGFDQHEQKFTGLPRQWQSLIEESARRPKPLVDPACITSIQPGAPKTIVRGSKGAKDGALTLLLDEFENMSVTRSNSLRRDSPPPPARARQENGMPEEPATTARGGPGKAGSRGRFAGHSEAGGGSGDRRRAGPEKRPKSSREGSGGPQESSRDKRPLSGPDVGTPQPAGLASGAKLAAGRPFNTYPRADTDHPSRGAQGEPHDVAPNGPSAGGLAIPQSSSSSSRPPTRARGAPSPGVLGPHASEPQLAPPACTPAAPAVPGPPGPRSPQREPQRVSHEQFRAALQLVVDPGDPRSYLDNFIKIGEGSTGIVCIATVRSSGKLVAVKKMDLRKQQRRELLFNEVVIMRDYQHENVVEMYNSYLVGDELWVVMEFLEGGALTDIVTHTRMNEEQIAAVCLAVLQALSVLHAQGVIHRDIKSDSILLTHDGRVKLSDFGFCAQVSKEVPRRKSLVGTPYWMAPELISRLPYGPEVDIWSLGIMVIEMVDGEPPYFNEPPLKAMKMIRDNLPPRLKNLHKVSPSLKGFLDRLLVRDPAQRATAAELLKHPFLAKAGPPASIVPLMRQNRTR

PAK6, sequence (Q9NQU5 whole entry): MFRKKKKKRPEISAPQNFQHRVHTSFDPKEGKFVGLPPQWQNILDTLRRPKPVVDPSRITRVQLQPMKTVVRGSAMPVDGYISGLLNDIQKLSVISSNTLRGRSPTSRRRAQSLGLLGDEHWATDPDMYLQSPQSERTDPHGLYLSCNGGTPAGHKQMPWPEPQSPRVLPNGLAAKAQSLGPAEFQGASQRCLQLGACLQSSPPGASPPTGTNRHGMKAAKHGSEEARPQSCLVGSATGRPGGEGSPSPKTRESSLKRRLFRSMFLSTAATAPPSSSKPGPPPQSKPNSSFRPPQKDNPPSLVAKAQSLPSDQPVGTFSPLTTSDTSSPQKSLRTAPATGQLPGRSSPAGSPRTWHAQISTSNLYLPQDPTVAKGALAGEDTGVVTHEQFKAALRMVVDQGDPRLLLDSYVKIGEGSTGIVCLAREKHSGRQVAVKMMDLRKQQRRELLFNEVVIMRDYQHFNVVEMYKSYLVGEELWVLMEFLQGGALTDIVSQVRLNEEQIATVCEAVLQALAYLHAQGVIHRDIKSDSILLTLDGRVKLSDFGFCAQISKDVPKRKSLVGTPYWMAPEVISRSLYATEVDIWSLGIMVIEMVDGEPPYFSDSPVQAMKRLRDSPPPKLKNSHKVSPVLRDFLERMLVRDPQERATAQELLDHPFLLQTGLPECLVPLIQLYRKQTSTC
PAK1, sequence (Q13153 whole entry): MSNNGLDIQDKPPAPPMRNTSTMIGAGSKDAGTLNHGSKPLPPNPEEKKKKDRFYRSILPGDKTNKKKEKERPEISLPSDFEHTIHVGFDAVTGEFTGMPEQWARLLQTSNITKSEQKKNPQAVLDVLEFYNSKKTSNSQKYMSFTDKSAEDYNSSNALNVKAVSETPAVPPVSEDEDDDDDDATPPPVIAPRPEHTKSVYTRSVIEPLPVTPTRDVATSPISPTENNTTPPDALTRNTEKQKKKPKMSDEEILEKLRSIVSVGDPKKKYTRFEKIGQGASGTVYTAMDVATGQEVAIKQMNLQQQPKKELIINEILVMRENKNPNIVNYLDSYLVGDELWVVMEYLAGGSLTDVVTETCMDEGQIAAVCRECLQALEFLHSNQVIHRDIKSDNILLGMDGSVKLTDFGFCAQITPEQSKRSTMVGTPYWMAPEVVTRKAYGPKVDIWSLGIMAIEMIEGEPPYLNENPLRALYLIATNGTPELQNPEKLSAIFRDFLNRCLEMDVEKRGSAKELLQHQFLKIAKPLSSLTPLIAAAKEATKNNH
PAK2, sequence (Q13177 whole entry): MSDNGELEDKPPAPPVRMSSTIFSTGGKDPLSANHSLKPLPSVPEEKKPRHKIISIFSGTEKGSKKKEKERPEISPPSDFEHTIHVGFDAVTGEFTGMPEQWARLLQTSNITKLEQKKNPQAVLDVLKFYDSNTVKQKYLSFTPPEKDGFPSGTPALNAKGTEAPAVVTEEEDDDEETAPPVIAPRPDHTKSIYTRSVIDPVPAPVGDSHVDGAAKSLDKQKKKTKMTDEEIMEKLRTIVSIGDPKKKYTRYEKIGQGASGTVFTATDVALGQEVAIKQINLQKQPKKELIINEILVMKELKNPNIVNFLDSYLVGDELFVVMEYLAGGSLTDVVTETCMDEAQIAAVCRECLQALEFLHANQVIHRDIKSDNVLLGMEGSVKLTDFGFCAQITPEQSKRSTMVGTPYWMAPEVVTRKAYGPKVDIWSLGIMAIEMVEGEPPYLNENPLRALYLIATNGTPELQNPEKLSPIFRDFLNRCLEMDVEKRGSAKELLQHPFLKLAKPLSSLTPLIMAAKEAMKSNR
PAK7, sequence (Q9P286 whole entry): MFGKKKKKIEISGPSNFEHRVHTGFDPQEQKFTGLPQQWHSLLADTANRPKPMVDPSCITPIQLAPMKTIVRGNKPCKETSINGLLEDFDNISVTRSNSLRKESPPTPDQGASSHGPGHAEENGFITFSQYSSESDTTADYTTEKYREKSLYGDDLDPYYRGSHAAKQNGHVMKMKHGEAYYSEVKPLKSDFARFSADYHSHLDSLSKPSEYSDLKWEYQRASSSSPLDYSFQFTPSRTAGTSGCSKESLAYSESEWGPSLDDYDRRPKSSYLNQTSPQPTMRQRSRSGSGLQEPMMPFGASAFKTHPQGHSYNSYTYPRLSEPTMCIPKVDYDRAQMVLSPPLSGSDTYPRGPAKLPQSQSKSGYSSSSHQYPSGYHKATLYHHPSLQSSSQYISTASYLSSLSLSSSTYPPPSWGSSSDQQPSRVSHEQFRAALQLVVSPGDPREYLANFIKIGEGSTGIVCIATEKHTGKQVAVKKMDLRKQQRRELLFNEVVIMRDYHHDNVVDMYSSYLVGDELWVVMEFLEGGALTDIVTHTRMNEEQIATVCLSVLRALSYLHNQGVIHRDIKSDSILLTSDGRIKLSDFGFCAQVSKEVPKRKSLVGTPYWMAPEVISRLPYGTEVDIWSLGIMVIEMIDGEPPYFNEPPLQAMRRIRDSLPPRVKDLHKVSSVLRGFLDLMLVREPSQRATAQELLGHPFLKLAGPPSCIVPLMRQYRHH

Row | Compound | Kd ([1]; read-out: Kd) [µM] | Kd ([2]; read-out: Kd) [µM] | Kd [3] [µM] | Kd [4] [µM] | Kd [5] [µM] | Kd [1] [µM] | Kd [2] [µM]
1 | CCOc1cc2ncc(C#N)c(Nc3ccc(F)c(Cl)c3)c2cc1NC(=O)/C=C/CN(C)C [EKB-569] | < 5 | ≥ 10 | ≥ 10 | ≥ 10 | ≥ 10 | – | –
2 | Nc1nc(Nc2ccc(S(N)(=O)=O)cc2)nn1C(=O)c1c(F)cccc1F [JNJ-7706621] | – | – | – | < 5 | – | ≥ 10 | ≥ 10
